US20240317706A1, “COMPOUNDS THAT MEDIATE PROTEIN DEGRADATION AND METHODS OF USE THEREOF” (Monte Rosa Therapeutics, Inc., priority 2021, published 2024)

Biological target: CRBN-DDB1 (Homo sapiens, UniProt Q96SW2)
Assay: Compound binding to CRBN by HTRF assay
Settings: CRBN-DDB1 2.5 nM, Cy5-Thalidomide 100 nM, 30 min; Ki from geometric mean IC50 by Cheng-Prustoff transformation
Method: Compound activity was monitored in a Homogenous Time-Resolved Fluorescence (HTRF) assay using 1-[5-({2-[2-(2-{[2-(2,6-dioxopiperidin-3-yl)-1,3-dioxo-2,3-dihydro-1H-isoindol-4-yl]oxy}acetamido)ethoxy]ethyl}carbamoyl)pentyl]-3,3-dimethyl-2-[(1E,3E)-5-[(2E)-1,3,3-trimethyl-5-sulfo-2,3-dihydro-1H-indol-2-ylidene]penta-1,3-dien-1-yl]-3H-indol-1-ium-5-sulfonate as a fluorescent probe. Biochemical assays were conducted in Greiner white 384 well HiBase plates (Cat. No 784075-25) in 10 μL total volume. A one pot detection solution of CRBN-DDB1 (2.5 nM), Anti-His Terbium Cryptate Gold (1×, PerkinElmer Cat. #: 61HI2TLB), and Cy5-Thalidomide (100 nM, Tenova Cat.: T52461) was prepared in 20 mM HEPES, 20 mM NaCl, 0.2 mM TCEP, 0.2 mM EDTA, and 0.005% Tween20 was dispensed to each assay plate. Compounds were stored in dry, ambient temperatures at 10 mM. A 10-point, 1:3 dilution series was prepared from 10 mM stock concentrations in Echo-compatible LDV plates. 10 nL of each compound dilution series was dispensed into assays wells using an Echo 650 (Labcyte inc. USA). 10 nL of 10 mM Lenalidomide was transferred into the active-control wells for the assay and 10 nL of DMSO was transferred into the neutral-control wells. The assay was then allowed to incubate for 30 min at ambient temperature after transferring compound. Plate measurements were taken on a Pherastar FSX (BMG Labtech, Germany) using the HTRF Red filter (Ex. 337 nm, em1: 620 nm, em2: 665 nm) (Flashes: 50, Integration time: 60-400 us, Z-height: 10 mm, Ratio-multiplier: 10,000). The HTRF signal was then subsequently normalized to the neutral and active controls. Analysis and IC50 values were derived using KNIME analytics (KNIME Zurich) transformation and fitting within Collaborative Drug Discovery (Collaborative Drug Discovery USA). Ki was derived from the geometric mean of the IC50 values using the Cheng-Prustoff transformation.

Chain of CRBN-DDB1 (Q96SW2 whole entry): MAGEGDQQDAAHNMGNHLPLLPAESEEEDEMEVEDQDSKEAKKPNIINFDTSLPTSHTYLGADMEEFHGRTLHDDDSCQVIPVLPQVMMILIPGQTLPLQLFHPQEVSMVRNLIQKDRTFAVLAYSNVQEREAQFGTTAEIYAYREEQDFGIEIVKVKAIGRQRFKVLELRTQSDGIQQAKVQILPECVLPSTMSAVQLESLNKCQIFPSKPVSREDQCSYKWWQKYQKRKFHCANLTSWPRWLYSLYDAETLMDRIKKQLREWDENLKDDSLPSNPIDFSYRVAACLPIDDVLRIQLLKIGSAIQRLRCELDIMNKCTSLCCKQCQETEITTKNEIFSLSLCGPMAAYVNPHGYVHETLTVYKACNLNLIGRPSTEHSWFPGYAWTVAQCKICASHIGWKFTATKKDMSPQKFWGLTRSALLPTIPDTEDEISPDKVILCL
Chain of CRBN-DDB1 (Q16531 whole entry partner): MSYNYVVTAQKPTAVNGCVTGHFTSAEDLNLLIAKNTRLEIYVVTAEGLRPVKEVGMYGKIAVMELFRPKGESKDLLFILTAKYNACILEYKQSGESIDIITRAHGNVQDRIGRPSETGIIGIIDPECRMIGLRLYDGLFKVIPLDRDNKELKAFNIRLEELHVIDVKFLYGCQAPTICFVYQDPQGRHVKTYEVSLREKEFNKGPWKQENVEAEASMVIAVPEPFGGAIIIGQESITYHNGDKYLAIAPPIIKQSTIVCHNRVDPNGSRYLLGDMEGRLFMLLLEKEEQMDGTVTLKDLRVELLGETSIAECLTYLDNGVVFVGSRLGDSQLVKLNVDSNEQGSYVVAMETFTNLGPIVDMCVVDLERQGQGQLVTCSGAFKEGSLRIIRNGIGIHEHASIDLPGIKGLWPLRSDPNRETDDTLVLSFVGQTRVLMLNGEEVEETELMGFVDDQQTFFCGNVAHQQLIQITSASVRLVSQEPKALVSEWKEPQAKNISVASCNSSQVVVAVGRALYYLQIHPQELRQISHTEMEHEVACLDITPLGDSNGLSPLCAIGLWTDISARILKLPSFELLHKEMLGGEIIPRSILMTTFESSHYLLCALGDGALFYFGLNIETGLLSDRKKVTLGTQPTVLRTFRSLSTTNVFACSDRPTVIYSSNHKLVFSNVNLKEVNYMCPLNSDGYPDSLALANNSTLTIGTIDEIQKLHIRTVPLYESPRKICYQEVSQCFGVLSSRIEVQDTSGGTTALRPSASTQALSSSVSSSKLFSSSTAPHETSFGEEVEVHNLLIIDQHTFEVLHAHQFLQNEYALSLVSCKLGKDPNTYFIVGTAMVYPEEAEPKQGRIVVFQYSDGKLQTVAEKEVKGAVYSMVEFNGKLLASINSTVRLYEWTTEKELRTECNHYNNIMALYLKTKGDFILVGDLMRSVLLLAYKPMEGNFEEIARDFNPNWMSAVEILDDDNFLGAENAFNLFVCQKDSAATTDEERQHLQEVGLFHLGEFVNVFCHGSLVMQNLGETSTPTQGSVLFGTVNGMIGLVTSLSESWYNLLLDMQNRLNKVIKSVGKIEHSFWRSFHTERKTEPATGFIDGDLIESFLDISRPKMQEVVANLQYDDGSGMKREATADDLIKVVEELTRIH

Ki | SMILES
≤ 0.1 µM | O=C1CCC(N2Cc3ccc(CNC(=S)OCC4CC5(CCC5)C4)cc3C2=O)C(=O)N1 (stereo not drawn) [Compound 111, O-(spiro[3.3]heptan-2-ylmethyl) ((2-(2,6-dioxopiperidin-3-yl)-3-oxoisoindolin-5-yl)methyl)carbamothioate]

Biological target: T1, CDK2 (Homo sapiens, UniProt P24941)
T1 construct: HEK293 clonal lines with CRISPR KI HiBiT tag on CDK2 proteins; host or cells: HEK293 clonal line, CRISPR knock-in HiBiT-CDK2, stably expressing LgBiT
Assay: NanoBiT assay (CDK2 degradation)
Format: cell-based
Settings: HEK293, HEK293 clonal line with CRISPR KI HiBiT tag on CDK2, Endurazine live cell substrate, 24 hours
Method: HEK293 clonal lines with CRISPR KI HiBiT tag on either CDK2 proteins and stably expressing LgBiT protein were obtained from Promega (Madison, WI). Cells were plated at 5000 cells per well using Multiflo (BioTek) in 384-well white solid bottom plates (Corning, 3570BC) in 25 ul volume in DMEM media (DMEM, high glucose, HEPES, no phenol red (ThermoFisher Scientific, 21063029)) containing 10% FBS (Corning, 35-075-CV), 1% Penicillin/Streptomycin ((ThermoFisher Scientific, 15140-122), and 1% Endurazine (Nano-Glo Endurazine Live Cell Substrate (Promega, N2571)). Cells were incubated for 16 hours at 37 C, 5% CO2. 75 nL of a compound at 30 μM were dosed into the plate using an Echo® 650 liquid handler (Labcyte). Cells were incubated at 37° C., 5% CO2 for 24 hours and then signal was read on a Pherastar FSX using “LUM plus” optic module.
Analysis was performed in Scinamic (Scinamic, Cambridge, MA). Luminescence response (R) was calculated by the formula: response=100*(S−N)/(P−N) where S is the signal of the well, N and P the mean negative and positive control values respectively of the same plate. The luminescence response was then fitted in Scinamic using a 3-parameter agonist logistic fit (hillslope=1, EC50>0, top/bottom unconstrained).

Dmax | SMILES
10 to 50% | O=C1CCC(N2Cc3ccc(CNC(=S)OCC4CC5(CCC5)C4)cc3C2=O)C(=O)N1 (stereo not drawn) [Compound 111, O-(spiro[3.3]heptan-2-ylmethyl) ((2-(2,6-dioxopiperidin-3-yl)-3-oxoisoindolin-5-yl)methyl)carbamothioate]
50 to 80% | CC1(C)[C@@H]2C[C@@H](OC(=O)NCc3ccc4c(c3)C(=O)N(C3CCC(=O)NC3=O)C4)C[C@@H]21 (stereo partly drawn) [Compound 62, (1R,3s,5S)-6,6-dimethylbicyclo[3.1.0]hexan-3-yl N-{[2-(2,6-dioxopiperidin-3-yl)-3-oxo-2,3-dihydro-1H-isoindol-5-yl]methyl}carbamate]
≤ 10% | C[C@@H](OC(=O)NCc1ccc2c(c1)C(=O)N(C1CCC(=O)NC1=O)C2)C1CC12CC2 (stereo partly drawn) [Compound 71, (1R)-1-{spiro[2.2]pentan-1-yl}ethyl N-{[2-(2,6-dioxopiperidin-3-yl)-3-oxo-2,3-dihydro-1H-isoindol-5-yl]methyl}carbamate]
≤ 10% | COCC1(COC(=O)NCc2ccc3c(c2)C(=O)N(C2CCC(=O)NC2=O)C3)CCCC1 (stereo not drawn) [Compound 57, [1-(methoxymethyl)cyclopentyl]methyl N-{[2-(2,6-dioxopiperidin-3-yl)-3-oxo-2,3-dihydro-1H-isoindol-5-yl]methyl}carbamate]
≤ 10% | C[C@@H]1CCOC1COC(=O)NCc1ccc2c(c1)C(=O)N(C1CCC(=O)NC1=O)C2 (mixture of isomers) [Compound 76, rac-[(2R,3S)-3-methyloxolan-2-yl]methyl N-{[2-(2,6-dioxopiperidin-3-yl)-3-oxo-2,3-dihydro-1H-isoindol-5-yl]methyl}carbamate]
10 to 50% | CC1(C)C2CCC1(COC(=O)NCc1ccc3c(c1)C(=O)N(C1CCC(=O)NC1=O)C3)CC2 (stereo not drawn) [Compound 63, {7,7-dimethylbicyclo[2.2.1]heptan-1-yl}methyl N-{[2-(2,6-dioxopiperidin-3-yl)-3-oxo-2,3-dihydro-1H-isoindol-5-yl]methyl}carbamate]
10 to 50% | CC1CN(CCOC(=O)NCc2ccc3c(c2)C(=O)N(C2CCC(=O)NC2=O)C3)C1 (stereo not drawn) [Compound 98, 2-(3-methylazetidin-1-yl)ethyl N-{[2-(2,6-dioxopiperidin-3-yl)-3-oxo-2,3-dihydro-1H-isoindol-5-yl]methyl}carbamate]
≤ 10% | CC1(C)OC[C@@H](COC(=O)NCc2ccc3c(c2)C(=O)N(C2CCC(=O)NC2=O)C3)O1 (stereo partly drawn) [Compound 87, [(4S)-2,2-dimethyl-1,3-dioxolan-4-yl]methyl N-{[2-(2,6-dioxopiperidin-3-yl)-3-oxo-2,3-dihydro-1H-isoindol-5-yl]methyl}carbamate]
10 to 50% | CC(C)O[C@H]1C[C@@H](OC(=O)NCc2ccc3c(c2)C(=O)N(C2CCC(=O)NC2=O)C3)C1 (stereo partly drawn) [Compound 55, (1s,3s)-3-(propan-2-yloxy)cyclobutyl N-{[2-(2,6-dioxopiperidin-3-yl)-3-oxo-2,3-dihydro-1H-isoindol-5-yl]methyl}carbamate]
≤ 10% | CC1(COC(=O)NCc2ccc3c(c2)C(=O)N(C2CCC(=O)NC2=O)C3)CN(C2CC2)C1 (stereo not drawn) [Compound 97, (1-cyclopropyl-3-methylazetidin-3-yl)methyl N-{[2-(2,6-dioxopiperidin-3-yl)-3-oxo-2,3-dihydro-1H-isoindol-5-yl]methyl}carbamate]
10 to 50% | C[C@@H]1CC[C@H](COC(=O)NCc2ccc3c(c2)C(=O)N(C2CCC(=O)NC2=O)C3)O1 (mixture of isomers) [Compound 68, rac-[(2R,5R)-5-methyloxolan-2-yl]methyl N-{[2-(2,6-dioxopiperidin-3-yl)-3-oxo-2,3-dihydro-1H-isoindol-5-yl]methyl}carbamate]
≤ 10% | O=C1CCC(N2Cc3ccc(CNC(=O)OC[C@@H]4C[C@H]4F)cc3C2=O)C(=O)N1 (mixture of isomers) [Compound 75, rac-[(1R,2S)-2-fluorocyclopropyl]methyl N-{[2-(2,6-dioxopiperidin-3-yl)-3-oxo-2,3-dihydro-1H-isoindol-5-yl]methyl}carbamate]
≤ 10% | O=C1CCC(N2Cc3ccc(CNC(=O)OCCC4CC4(F)F)cc3C2=O)C(=O)N1 (stereo not drawn) [Compound 78, 2-(2,2-difluorocyclopropyl)ethyl N-{[2-(2,6-dioxopiperidin-3-yl)-3-oxo-2,3-dihydro-1H-isoindol-5-yl]methyl}carbamate]
≤ 10% | O=C1CCC(N2Cc3ccc(CNC(=O)O[C@H]4C[C@@H]5C[C@H]4CC5(F)F)cc3C2=O)C(=O)N1 (mixture of isomers) [Compound 92, rac-(1R,2R,4R)-5,5-difluorobicyclo[2.2.1]heptan-2-yl N-{[2-(2,6-dioxopiperidin-3-yl)-3-oxo-2,3-dihydro-1H-isoindol-5-yl]methyl}carbamate]
10 to 50% | CCC1(COC(=O)NCc2ccc3c(c2)C(=O)N(C2CCC(=O)NC2=O)C3)COC1 (stereo not drawn) [Compound 42, (3-ethyloxetan-3-yl)methyl N-{[2-(2,6-dioxopiperidin-3-yl)-3-oxo-2,3-dihydro-1H-isoindol-5-yl]methyl}carbamate]
10 to 50% | CC1(COC(=O)NCc2ccc3c(c2)C(=O)N(C2CCC(=O)NC2=O)C3)CCCCC1 (stereo not drawn) [Compound 85, (1-methylcyclohexyl)methyl N-{[2-(2,6-dioxopiperidin-3-yl)-3-oxo-2,3-dihydro-1H-isoindol-5-yl]methyl}carbamate]
≤ 10% | CC(=O)N1CCC(COC(=O)NCc2ccc3c(c2)C(=O)N(C2CCC(=O)NC2=O)C3)C1 (stereo not drawn) [Compound 50, (1-acetylpyrrolidin-3-yl)methyl N-{[2-(2,6-dioxopiperidin-3-yl)-3-oxo-2,3-dihydro-1H-isoindol-5-yl]methyl}carbamate]
10 to 50% | O=C1CCC(N2Cc3ccc(CNC(=O)OCC4CCCCS4)cc3C2=O)C(=O)N1 (stereo not drawn) [Compound 53, (thian-2-yl)methyl N-{[2-(2,6-dioxopiperidin-3-yl)-3-oxo-2,3-dihydro-1H-isoindol-5-yl]methyl}carbamate]
≤ 10% | O=C1CCC(N2Cc3ccc(CNC(=O)OCC4CCCS4(=O)=O)cc3C2=O)C(=O)N1 (stereo not drawn) [Compound 82, (1,1-dioxo-1lambda6-thiolan-2-yl)methyl N-{[2-(2,6-dioxopiperidin-3-yl)-3-oxo-2,3-dihydro-1H-isoindol-5-yl]methyl}carbamate]
≤ 10% | O=C1CCC(N2Cc3ccc(CNC(=O)OC[C@H]4[C@@H]5COC[C@@H]54)cc3C2=O)C(=O)N1 (stereo partly drawn) [Compound 61, [(1R,5S,6R)-3-oxabicyclo[3.1.0]hexan-6-yl]methyl N-{[2-(2,6-dioxopiperidin-3-yl)-3-oxo-2,3-dihydro-1H-isoindol-5-yl]methyl}carbamate]
10 to 50% | O=C1CCC(N2Cc3ccc(CNC(=O)OCC#CC4CC4)cc3C2=O)C(=O)N1 (stereo not drawn) [Compound 44, 3-cyclopropylprop-2-yn-1-yl N-{[2-(2,6-dioxopiperidin-3-yl)-3-oxo-2,3-dihydro-1H-isoindol-5-yl]methyl}carbamate]
10 to 50% | O=C1CCC(N2Cc3ccc(CNC(=O)OCC4CSC4)cc3C2=O)C(=O)N1 (stereo not drawn) [Compound 60, (thietan-3-yl)methyl N-{[2-(2,6-dioxopiperidin-3-yl)-3-oxo-2,3-dihydro-1H-isoindol-5-yl]methyl}carbamate]

SMILES | Dmax
CN(C(=O)OC(C)(C)C)C1CC(COC(=O)NCc2ccc3c(c2)C(=O)N(C2CCC(=O)NC2=O)C3)C1 (stereo not drawn) [Compound 96, (3-{[(tert-butoxy)carbonyl](methyl)amino}cyclobutyl)methyl N-{[2-(2,6-dioxopiperidin-3-yl)-3-oxo-2,3-dihydro-1H-isoindol-5-yl]methyl}carbamate] | 10 to 50%
